What was measured:
LynD = assay: 31P NMR of ATP turnover by LynD; type: biochemical, Lyngbya sp. PCC 8106; details: with and without PatE′
E. coli YcaO = details: absence of substrate, ref [30]; cited from earlier work

## Nc1ncnc2c1ncn2[C@@H]1O[C@H](COP(=O)(O)OP(=O)(O)OP(=O)(O)O)[C@@H](O)[C@H]1O [ATP]
LynD
  products of ATP turnover: AMP (not ADP), pyrophosphate (PPi) and phosphate
E. coli YcaO
  ATP hydrolysis products: hydrolyzed ATP to AMP and pyrophosphate

Reference: paper PMC4512242 (Nature chemical biology, 2015)
